Source: patent publication US11299485B2, “Thiophene derivative and use thereof” (FUJIMOTO CO., LTD., priority 2018, dated 2022)

Assays:
Format in all cases: cell-based
Daudi cells = experiment: Human Burkitt lymphoma cell line Daudi proliferation suppression test; conditions: 72 h, compound 10 μM, 3 days, WST-8, read-out: cell survival rate (% of control) Daudi
From the text: Example 54: Human Burkitt Lymphoma Cell Line Daudi Proliferation Suppression Test
Daudi cells (National Institutes of Biomedical Innovation, Health and Nutrition (NIBIOHN), JCRB9071) were suspended in medium B, and diluted as appropriate with 0.4% trypan blue solution (Sigma-Aldrich Co. LLC.). The number of viable cells was counted with a hemocytometer (ERMA INC.). A cell suspension obtained by diluting with medium B such that the value obtained was 1.3×10^5 cells/mL was dispensed into a Falcon 96 well flat bottom plate (Corning Incorporated) at 75 μL/well, and culture was started at 37° C. under 5% CO2 stream. The next day, a solution obtained by diluting 4 mM DMSO solution of the test compound 100-fold with medium B was added by 25 μL to each well (final concentration of test compound 10 μM). 25 μL of a solution obtained by diluting DMSO 100-fold with medium B was added to the control well. After culturing at 37° C. in a 5% CO2 stream for 3 days, the cell proliferation activity was measured according to the instruction manual attached to WST-8 Kit (KISHIDA CHEMICAL Co., Ltd.).

Kasumi-7 cells = experiment: Human acute lymphoblastic leukemia cell line Kasumi-7 proliferation suppression test; conditions: 72 h, compound 10 μM, 3 days, WST-8, read-out: cell survival rate (% of control) Kasumi-7
From the text: Example 55: Human Acute Lymphoblastic Leukemia Cell Line Kasumi-7 Proliferation Suppression Test
Kasumi-7 cells (NIBIOHN, JCRB1401) were suspended in 20% fetal calf serum (Thermo Fisher Scientific, Inc.)-containing RPMI1640 medium (ATCC, hereinafter abbreviated as medium C), and diluted as appropriate with 0.4% trypan blue solution (Sigma-Aldrich Co. LLC.). The number of viable cells was counted with a hemocytometer (Funakoshi Co., Ltd.). A cell suspension obtained by diluting with medium C such that the value obtained was 1.3×10^5 cells/mL was dispensed into a Falcon 96 well flat bottom plate (Corning Incorporated) at 75 μL/well, and culture was started at 37° C. under 5% CO2 stream. The next day, a solution obtained by diluting 4 mM DMSO solution of the test compound 100-fold with medium C was added by 25 μL to each well (final concentration of test compound 10 μM). 25 μL of a solution obtained by diluting DMSO 100-fold with medium C was added to the control well. After culturing at 37° C. in a 5% CO2 stream for 3 days, the cell proliferation activity was measured according to the instruction manual attached to WST-8 Kit (KISHIDA CHEMICAL Co., Ltd.).

Pfeiffer cells = experiment: Human diffuse large B-cell lymphoma cell line Pfeiffer proliferation suppression test; conditions: 144 h, compound 10 μM, 3 days + re-plating with compound 3 days, WST-8, read-out: cell survival rate (% of control) Pfeiffer
From the text: Example 52: Human Diffuse Large B-Cell Lymphoma Cell Line Pfeiffer Proliferation Suppression Test
Pfeiffer cells (ATCC, CRL-2632) were suspended in medium B, and diluted as appropriate with 0.4% trypan blue solution (Sigma-Aldrich Co. LLC.). The number of viable cells was counted with a hemocytometer (Funakoshi Co., Ltd.). A cell suspension obtained by diluting with medium B such that the value obtained was 1.3×10^5 cells/mL was dispensed into a Falcon 96 well flat bottom plate (Corning Incorporated) at 75 μL/well, and culture was started at 37° C. under 5% CO2 stream. The next day, a solution obtained by diluting 4 mM DMSO solution of the test compound 100-fold with medium B was added by 25 μL to each well (final concentration of test compound 10 μM). 25 μL of a solution obtained by diluting DMSO 100-fold with medium B was added to the control well. After culturing at 37° C. in a 5% CO2 stream for 3 days, the cell culture medium was uniformly suspended with a multi channel pipette, 14 μL per well was transferred into another new Falcon 96 well flat bottom plate. A solution obtained by diluting 4 mM DMSO solution of the same test compound as the first time 400-fold with medium B was added by 86 μL to a total amount of 100 μL (final concentration of test compound 10 μM). After culturing at 37° C. in a 5% CO2 stream for 3 days, the cell proliferation activity was measured according to the instruction manual attached to WST-8 Kit (KISHIDA CHEMICAL Co., Ltd.).

Row | SMILES | viability at 10 µM (Daudi cells) [%] | viability at 10 µM (Kasumi-7 cells) [%] | viability at 10 µM (Pfeiffer cells) [%]
1 | O=C1CCC(n2cc(-c3cscc3Br)nn2)C(=O)N1 (stereo not drawn) [compound 1, 3-[4-(4-bromothiophen-3-yl)-1H-1,2,3-triazol-1-yl]piperidine-2,6-dione] | 61 | 65 | 89
2 | O=C1CCC(n2cc(-c3ccsc3)nn2)C(=O)N1 (stereo not drawn) [compound 2, 3-[4-(thiophen-3-yl)-1H-1,2,3-triazol-1-yl]piperidine-2,6-dione] | 71 | 68 | 80
3 | O=C1CCC(n2cc(-c3cccs3)nn2)C(=O)N1 (stereo not drawn) [compound 3, 3-[4-(thiophen-2-yl)-1H-1,2,3-triazol-1-yl]piperidine-2,6-dione] | 78 | 81 | 96
4 | O=C1CCC(n2nnc(-c3ccsc3)c2Cl)C(=O)N1 (stereo not drawn) [compound 4, 3-[5-chloro-4-(thiophen-3-yl)-1H-1,2,3-triazol-1-yl]piperidine-2,6-dione] | 82 | 91 | 98
5 | Cc1ccc(-c2cn(C3CCC(=O)NC3=O)nn2)s1 (stereo not drawn) [compound 5, 3-[4-(5-methylthiophen-2-yl)-1H-1,2,3-triazol-1-yl]piperidine-2,6-dione] | 82 | 72 | 98
6 | Cc1cc(-c2cn(C3CCC(=O)NC3=O)nn2)cs1 (stereo not drawn) [compound 6, 3-[4-(5-methylthiophen-3-yl)-1H-1,2,3-triazol-1-yl]piperidine-2,6-dione] | 79 | 72 | 100
7 | Cc1cscc1-c1cn(C2CCC(=O)NC2=O)nn1 (stereo not drawn) [compound 7, 3-[4-(4-methylthiophen-3-yl)-1H-1,2,3-triazol-1-yl]piperidine-2,6-dione] | 75 | 69 | 101
8 | CC(=O)c1ccc(-c2cn(C3CCC(=O)NC3=O)nn2)s1 (stereo not drawn) [compound 8, 3-[4-(5-acetylthiophen-2-yl)-1H-1,2,3-triazol-1-yl]piperidine-2,6-dione] | 93 | 94 | 107
9 | O=C1CCC(n2cc(-c3csc(CO)c3)nn2)C(=O)N1 (stereo not drawn) [compound 9, 3-{4-[5-(hydroxymethyl)thiophen-3-yl]-1H-1,2,3-triazol-1-yl}piperidine-2,6-dione] | 83 | 90 | 100
10 | O=C1CCC(n2cc(-c3scc4c3OCCO4)nn2)C(=O)N1 (stereo not drawn) [compound 10, 3-[4-(2,3-dihydrothieno[3,4-b][1,4]dioxin-5-yl)-1H-1,2,3-triazol-1-yl]piperidine-2,6-dione] | 85 | 72 | 113
11 | O=C1CCC(n2cc(-c3ccc(Cl)s3)nn2)C(=O)N1 (stereo not drawn) [compound 11, 3-[4-(5-chlorothiophen-2-yl)-1H-1,2,3-triazol-1-yl]piperidine-2,6-dione] | 94 | 78 | 114
12 | O=C1CCC(n2cc(-c3ccc(Br)s3)nn2)C(=O)N1 (stereo not drawn) [compound 12, 3-[4-(5-bromothiophen-2-yl)-1H-1,2,3-triazol-1-yl]piperidine-2,6-dione] | 87 | 89 | 94
13 | O=C1CCC(n2cc(-c3cc(Br)sc3Br)nn2)C(=O)N1 (stereo not drawn) [compound 13, 3-[4-(2,5-dibromothiophen-3-yl)-1H-1,2,3-triazol-1-yl]piperidine-2,6-dione] | 95 | 93 | 100
14 | O=C1CCC(n2cc(-c3cscc3Cl)nn2)C(=O)N1 (stereo not drawn) [compound 14, 3-[4-(4-chlorothiophen-3-yl)-1H-1,2,3-triazol-1-yl]piperidine-2,6-dione] | 49 | 64 | 74
15 | COc1c(-c2cn(C3CCC(=O)NC3=O)nn2)csc1C (stereo not drawn) [compound 15, 3-[4-(4-methoxy-5-methylthiophen-3-yl)-1H-1,2,3-triazol-1-yl]piperidine-2,6-dione] | 61 | 60 | 87
16 | COC(=O)c1scc(-c2cn(C3CCC(=O)NC3=O)nn2)c1OC (stereo not drawn) [compound 16, methyl 4-[1-(2,6-dioxopiperidin-3-yl)-1H-1,2,3-triazol-4-yl]-3-methoxythiophene-2-carboxylate] | 83 | 90 | 98
17 | CCOc1cscc1-c1cn(C2CCC(=O)NC2=O)nn1 (stereo not drawn) [compound 17, 3-[4-(4-ethoxythiophen-3-yl)-1H-1,2,3-triazol-1-yl]piperidine-2,6-dione] | 50 | 48 | 72
18 | COc1sccc1-c1cn(C2CCC(=O)NC2=O)nn1 (stereo not drawn) [compound 18, 3-[4-(2-methoxythiophen-3-yl)-1H-1,2,3-triazol-1-yl]piperidine-2,6-dione] | 51 | 52 | 70
19 | COc1cscc1-c1cn(C2CCC(=O)NC2=O)nn1 (stereo not drawn) [compound 19, 3-[4-(4-methoxythiophen-3-yl)-1H-1,2,3-triazol-1-yl]piperidine-2,6-dione] | 4 | 24 | 11
20 | COc1cc(-c2cn(C3CCC(=O)NC3=O)nn2)cs1 (stereo not drawn) [compound 20, 3-[4-(5-methoxythiophen-3-yl)-1H-1,2,3-triazol-1-yl]piperidine-2,6-dione] | 55 | 53 | 81
21 | CCCOc1cscc1-c1cn(C2CCC(=O)NC2=O)nn1 (stereo not drawn) [compound 21, 3-[4-(4-propoxythiophen-3-yl)-1H-1,2,3-triazol-1-yl]piperidine-2,6-dione] | 86 | 79 | 106
22 | COc1c(-c2cn(C3CCC(=O)NC3=O)nn2)csc1Cl (stereo not drawn) [compound 22, 3-[4-(5-chloro-4-methoxythiophen-3-yl)-1H-1,2,3-triazol-1-yl]piperidine-2,6-dione] | 81 | 82 | 97
23 | COc1c(-c2cn(C3CCC(=O)NC3=O)nn2)csc1Br (stereo not drawn) [compound 23, 3-[4-(5-bromo-4-methoxythiophen-3-yl)-1H-1,2,3-triazol-1-yl]piperidine-2,6-dione] | 76 | 76 | 97
24 | CCOc1cc(-c2cn(C3CCC(=O)NC3=O)nn2)cs1 (stereo not drawn) [compound 24, 3-[4-(5-ethoxythiophen-3-yl)-1H-1,2,3-triazol-1-yl]piperidine-2,6-dione] | 69 | 72 | 91
25 | CCCCOc1cscc1-c1cn(C2CCC(=O)NC2=O)nn1 (stereo not drawn) [compound 25, 3-[4-(4-butoxythiophen-3-yl)-1H-1,2,3-triazol-1-yl]piperidine-2,6-dione] | 68 | 73 | 84
26 | CC(C)Oc1cscc1-c1cn(C2CCC(=O)NC2=O)nn1 (stereo not drawn) [compound 26, 3-[4-(4-isopropoxythiophen-3-yl)-1H-1,2,3-triazol-1-yl]piperidine-2,6-dione] | 51 | 50 | 82
